Assay [1] concerns dopamine receptors D1, D2 long, D4 and D5 mRNA. The assay can be described thus: D1, D2 long, D4 and D5 receptor mRNA by Q-PCR after juvenile MPH exposure. Conditions: MPFCx, 25 days after cessation of MPH, P>0.1. Type of assay: in vivo, Sprague-Dawley rats.
The test system of a further assay is Sprague-Dawley male rats. The assay can be described thus: Place conditioning to 10 mg/kg cocaine at P60 after juvenile drug exposure. Type of assay: in vivo. Conditions: juvenile exposure P20-P35: MPH 2 mg/kg, ±7-OHDPAT 0.3 mg/kg, or MPH 2 mg/kg + Naf 0.05 mg/kg; tested at P60; HCl. As for the experimental part: Juvenile Sprague-Dawley male rats were treated with MPH (2 mg/kg, i.p. twice daily), ±7-OHDPAT (0.3 mg/kg, i.p. twice daily), Naf (0.05, 0.5 and 5 mg/kg; i.p. twice daily) or VEH (i.p. twice daily) between the ages of P20 and P35 (Andersen et al., Nat. Neurosci., 5:13-14 (2002)). The MPH dose was selected on the basis of previous studies (see Andersen et al., Nat. Neurosci., 5:13-14 (2002); Bolanos et al., Biol. Psychiatry, 54:1317-1329 (2003); and Mague et al., Biol. Psychiatry, 57:120-125 (2005)), unpublished observations that we find similar behavioral effects if MPH is given i.p. or orally at this dose, and evidence that it approximates a clinically relevant dose in humans based on plasma levels (see Wargin et al., J. Pharmacol. Exp. Ther., 226:382-386 (1983); and Kuczenski, R. & Segal, D. S. J. Neurosci., 22:7264-7271 (2002)). Clinically therapeutic doses of MPH yield plasma levels between 8 and 40 ng/mL (Swanson et al., Behay. Brain Res., 130:73-78 (2002); Teicher et al., Ann. N. Y. Acad. Sci., 1071:313-323 (2006)), with 0.5 mg/kg i.p., achieving plasma levels of 36 ng/mL within 5 min in rats (Berridge et al., Biol. Psychiatry, 60:1111-1120 (2006)). Doses for juvenile exposure to ±7-OHDPAT are based on Neisewander et al., Neuropsychopharmacology, 29:1479-1487 (2004), and cortical microinjections of 10 µg/side were derived from Boulay et al. Prog. Neuropsychopharmacol. Biol. Psychiatry, 24:39-49 (2000). Naf doses below 1 mg/kg have negligible D2 receptor occupancy (Sautel et al., J. Pharmacol. Exp. Ther., 275:1239-1246 (1995)) and are behaviorally effective (Richtand et al., Brain Res., 867:239-242 (2000)). Subjects were weighed daily at 09.00 h and injected with their assigned drug; the second injection was administered 4 h later at 13.00 h. This regimen is designed to match the twice-daily dosing used by children, taking into account the higher metabolic rates of rats (Wargin et al., J. Pharmacol. Exp. Ther., 226:382-386 (1983)). After the second drug administration on P35, the rats received no further treatments until behavioral testing at P60.
Rats treated between P20 and P35 with either Naf (0, 0.05, 0.5 or 5.0 mg/kg; n=7-9), ±7-OHDPAT (0.3 mg/kg; n=9), MPH (2 mg/kg; n=9), or a combination of 2 mg/kg MPH and 0.05 mg/kg Naf (MPH/Naf; n=8) were tested at P60 for place conditioning to 10 mg/kg cocaine. According to standard laboratory methods (Andersen et al., Nat. Neurosci., 5:13-14 (2002); Carlezon, Methods Mol. Med., 84:243-249 (2003)), unbiased place conditioning chambers consisted of two large (24×18×33) side compartments separated by a small (12×18×33 cm) middle compartment. Screening was conducted for 30 min on Day 1. Rats were placed in the middle compartment and allowed to freely explore the apparatus. […] Two days of conditioning (with two sessions per day) occurred on Days 2 and 3 for 60 min (Andersen et al., Nat. Neurosci., 5:13-14 (2002); Carlezon, Methods Mol. Med., 84:243-249 (2003)). During the conditioning sessions, rats received a 1 mL/kg i.p. injection of VEH in the morning (09.00 h) and confined to one side. The rats were then returned to the home cage. Four hours later, rats received 10 mg/kg cocaine and confined to the other side. Sides differed in floor texture, wall colors and lighting, and assignments were counterbalanced. On Day 4, rats were permitted to freely explore the entire apparatus for 30 min in a drug-free state.

The test system of the next assay is BDNF. The assay can be described thus: BDNF mRNA and protein in MPH-exposed subjects after cocaine challenge. It counts as in vivo, rats. Conditions: in response to cocaine challenge, preliminary, data not shown. From the text:
Changes in D3 expression and function may signal a sensitive period of development, when drug imprinting is likely to occur (Andersen, Trends Pharmacol. Sci., 26:237-243 (2005)). Drug-induced perturbations before the completion of dopamine receptor development may prevent these developmental rearrangements.

Another assay deals with D3 receptor mRNA. The assay can be described thus: D3 receptor mRNA by Q-PCR after juvenile drug exposure. It counts as in vivo, Sprague-Dawley rats. The following applies: for reduction in D3 receptor mRNA: MPH 2 mg/kg i.p. twice daily P20-P35, HCl.

Structures are written as SMILES. “And” between values parts separate entries of the source, which are not always exact repeats. Identical values can stand only once. “Also recorded” adds a separate entry of the source. Counter-ions that a name gives are not always drawn.

Consider `COC(=O)C(c1ccccc1)C1CCCCN1` (stereo not drawn) [MPH, d,l-Methylphenidate HCl], for which the “changes in other dopamine receptor subtype mRNA (D1, D2 long, D4, D5)” value in assay [1] was “No other significant changes”. Further, the “place conditioning to 10 mg/kg cocaine associated environment (pre- vs. post-conditioning)” value in the assay with Sprague-Dawley male rats is on record as “Place aversion; also recorded: aversion to the cocaine-associated environment”. In addition, the “BDNF mRNA” value in the assay on BDNF is “reduced”. Besides, in the assay on BDNF, the BDNF protein levels entry is “modestly, but significantly, lower”. The “reduction in D3 receptor mRNA” value with D3 receptor mRNA (MPFCx, assessed at P40) was 28.9±8.3% and 28.9%; in the assay on D3 receptor mRNA (MPFCx, relative to VEH controls, 25 days post-exposure (P60)) it was 23.8±6.7% and 23.8%. The “D3 mRNA levels in the place-conditioned animals” value with D3 receptor mRNA (MPFCx, corrected by GAPDH, juvenile MPH 2 mg/kg or MPH + 0.05 mg/kg Naf, F3,20=8.76, P<0.001) is “significantly changed”. The “D3 mRNA change” value in the assay with D3 receptor mRNA (accumbens or striatum, MPH-exposed, P>0.5) was “did not change”.

The values above are taken from US20110224256A1, “T[…] THE TREATMENT OF PSYCHIATRIC DISORDERS” (priority 2008, published 2011).
